Measured values reported in patent US4738954A, “Novel N^6 -substituted-5'-oxidized adenosine analogs” (Warner-Lambert Company, priority 1985, dated 1988).

What was measured:
adenosine A2 receptor = molecular target: T1, adenosine A2 receptor (Rattus norvegicus, UniProt P30543); experiment: Adenosine Receptor Binding--A2 Receptor Affinity (RBA2), [3H]NECA displacement; format: rat (Sprague-Dawley striatal membranes); settings: 4 nM [3H]NECA + 50 nM N6-cyclopentyladenosine, rat striatum, 25° C, 60 min; read-out: RBA-2 (IC50, A2 receptor affinity)
T1 construct: Brains were thawed and then kept on ice while the striata were dissected out; tissue Pel-Freez (Rogers, Arkansas) (rat brains); host or cells: rat striatum, membranes
Method: Adenosine Receptor Binding--A2 Receptor Affinity (RBA2)
Brains from 200-500 g mixed sex Sprague-Dawley rats were purchased from Pel-Freez (Rogers, Arkansas). Fresh brains from male Long-Evans hooded rats (Blue Spruce Farms, Altamont, NY) gave essentially identical results. Brains were thawed and then kept on ice while the striata were dissected out. Striata were disrupted in 10 vol of ice-cold 50 mM Tris.HCl (pH 7.7 at 25° C., pH 8.26 at 5° C.) (Tris) for 30 seconds in a Polytron PT-10 (Brinkmann) at setting 5. The suspension was centrifuged at 50,000×g for ten minutes, the supernatant discarded, the pellet resuspended in 10 vol ice-cold Tris as above, recentrifuged, resuspended at 1 g/5 ml, and stored in plastic vials at -70° C. (stable for at least six months). When needed, tissue was thawed at room temperature, disrupted in a Polytron, and kept on ice until used.
All incubations were for 60 minutes at 25° C. in 12×75 mm glass tubes containing 1 ml Tris with 5 mg original tissue weight of rat weight of rat striatal membranes, 4 nM [^3 H]-N-ethyl adenosine-5'-carboxamide ([^3 H]NECA), 50 nM N^6 -cyclopentyladenosine (to eliminate A1 receptor binding), 10 mM MgCl2, 0.1 units/ml of adenosine deaminase and 1% dimethylsulfoxide. N^6 -Cyclopentyladenosine was dissolved at 10 mM in 0.02N HCl and diluted in Tris. Stock solutions and dilutions of N^6 -cyclopentyladenosine could be stored at -20° C. for several months. Test compounds were dissolved at 10 mM in dimethylsulfoxide on the same day as the experiment, and diluted in dimethylsulfoxide to 100× the final incubation concentration. Control incubations received an equal volume (10 μl) of dimethylsulfoxide; the resulting concentration of dimethylsulfoxide had no effect on binding. [^3 H]NECA was diluted to 40 nM in Tris. The membrane suspension (5 mg/0.79 ml) contained sufficient MgCl2 and adenosine deaminase to give 10 mM and 0.1 units/ml, respectively, final concentration in the incubation. […] After all additions, the rack of tubes was vortexed, and the tubes were then incubated for 60 min at 25° C. in a shaking water bath. The rack of tubes was vortexed an additional time halfway through the incubation.
Incubations were terminated by filtration through 2.4 cm GF/B filters under reduced pressure. Each tube was filtered as follows: the contents of the tube were poured on the filter, 4 ml of ice-cold Tris were added to the tube and the contents poured onto the filter, and the filter was washed twice with 4 ml of ice-cold Tris. The filtration was complete in about twelve seconds. Filters were put in scintillation vials, 8 ml of Formula 947 scintillation fluid added, and the vials left overnight, shaken, and counted in a liquid scintillation counter at 40% efficiency.
Nonspecific binding was defined as binding in the presence of 100 μM N^6 -cyclopentyladenosine, and specific binding was defined as total binding minus nonspecific binding. The IC50 was calculated by weighted nonlinear least squares curve-fitting to the mass-action equation. [formula] where Y is cpm bound
T is cpm total binding without drug
S is cpm specific binding without drug
D is the concentration of drug and
K is the IC50 of the drug
Weighting factors were calculated under the assumption that the standard deviation was proportional to the predicted value of Y. Nonspecific binding was treated as a very large (infinite) concentration of drug in the computer analysis.

mouse locomotor activity = experiment: Mouse Activity and Screen Test Procedure (MAST): locomotor activity; format: in vivo, Swiss-Webster male mice; settings: mice, one hour
Source text: The compounds of the invention are new chemical substances which are useful as pharmaceutical agents for the treatment of psychoses. The antipsychotic activity of representative compounds of the invention was established by the Mouse Activity and Screen Test Procedure (MAST) described below.
Nine unfasted Swiss-Webster male mice weighing 20-30 g are equally divided into three groups for each drug dose to be tested. That is, data for each dose level was generated by three separate groups of three mice each.
A minimum of three dose levels (10, 30, and 100 mg/kg) are tested for each drug. Treatments are administered intraperitoneally one hour prior to testing. All dosages are calculated as parent compound and given in volumes of 10 ml/kg. Compounds are dissolved or suspended in 0.2% Methocel. Control animals are injected with Methocel.
A two part testing procedure is started one hour postinjection. First, the screen test (ST) is performed (see Pharmac. Biochem. Behav. 6, 351-353, 1977). Briefly this test consists of placing mice on individual wire screens which are then rotated 180 degrees at the start of a 60 second observation period. The number of mice falling off the inverted screen is recorded.
Immediately following the screen test, the final phase of testing is initiated by placing each group of three mice in one actophotometer (Life Sciences, 22, 1067-1076, 1978). The actophotometer consists of a cylindrical chamber whose center is occupied by another cylinder which contains the illumination for six photocells located on the perimeter of the chamber. Six light-beam interruptions equal one count. Locomotor activity is recorded by computer at ten minute intervals for 60 minutes.
The data obtained from the screen test are expressed as percent of mice falling off the screen. Data derived from locomotor activity of drug treated mice are compared to the activity of vehicle treated animals and are expressed as percent inhibition of spontaneous locomotion. All percentages reported for inhibition of locomotion (LI) are based upon data accumulated for one hour. Both phases of testing are graded: A=60-100%; C=31-59%; and N=0-30%. An overall dose rating is obtained by the following criteria:
LAD refers to the lowest dose at which an A rating is achieved. […] Utilizing this procedure, an overall dose rating of A was obtained for the noted compound at the indicated dose. The compounds are identified in the Examples.

T1 sequence (P30543 whole entry): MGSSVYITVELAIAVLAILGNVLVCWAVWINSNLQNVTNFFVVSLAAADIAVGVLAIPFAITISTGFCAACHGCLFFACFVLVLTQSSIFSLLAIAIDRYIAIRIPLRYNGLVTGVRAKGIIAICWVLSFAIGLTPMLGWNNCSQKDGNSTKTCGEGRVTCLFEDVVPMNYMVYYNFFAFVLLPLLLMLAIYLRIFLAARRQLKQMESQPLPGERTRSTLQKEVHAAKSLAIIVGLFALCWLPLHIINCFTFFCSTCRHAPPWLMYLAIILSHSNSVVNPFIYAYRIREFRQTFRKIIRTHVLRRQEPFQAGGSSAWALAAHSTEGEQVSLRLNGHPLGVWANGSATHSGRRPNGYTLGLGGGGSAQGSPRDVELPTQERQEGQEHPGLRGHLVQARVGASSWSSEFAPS

IC50 (adenosine A2 receptor) [nM] | Structure (SMILES) | Inhibition of mouse locomotor activity (mouse locomotor activity; 0.01 mg/kg IP) [%] | Inhibition of mouse locomotor activity (mouse locomotor activity; 0.03 mg/kg IP) [%] | Inhibition of mouse locomotor activity (mouse locomotor activity; 0.1 mg/kg IP) [%] | Inhibition of mouse locomotor activity (mouse locomotor activity; 0.3 mg/kg IP) [%] | Inhibition of mouse locomotor activity (mouse locomotor activity; 1 mg/kg IP) [%] | Inhibition of mouse locomotor activity (mouse locomotor activity; 3 mg/kg IP) [%] | Inhibition of mouse locomotor activity (mouse locomotor activity; 10 mg/kg IP) [%] | Inhibition of mouse locomotor activity (mouse locomotor activity; 30 mg/kg IP) [%]
12400 | CCOC(=O)[C@H]1O[C@@H](n2cnc3c(NC4CC5CCC4C5)ncnc32)[C@H](O)[C@@H]1O (relative stereo) [Example 8, N-6-Norbornyl-adenosine-5'ethylcarboxylate] | – | – | – | – | – | – | – | –
70 | CCNC(=O)[C@H]1O[C@@H](n2cnc3c(N[C@H](C)Cc4ccccc4)ncnc32)[C@H](O)[C@@H]1O [Example 1, (R)-N-6-[(2-phenyl-1-methyl)ethyl]-adenosine-5'-ethylcarboxamide] | -8 | 18 | 91 | 75 | 92 | 99 | 99 | 99
25 | CCNC(=O)[C@H]1O[C@@H](n2cnc3c(NCC(c4ccccc4)c4ccccc4)ncnc32)[C@H](O)[C@@H]1O [Example 3, N^6-(2,2-diphenylethyl)-adenosine-5'-ethylcarboxamide] | – | – | 20 | 1 | 72 | 92 | 90 | 93
468 | CCOC(=O)[C@H]1O[C@@H](n2cnc3c(NCC(c4ccccc4)c4ccccc4)ncnc32)[C@H](O)[C@@H]1O [Example 5, N6-(2,2-diphenylethyl)-5-adenosine-5'-ethylcarboxylate] | – | – | – | – | – | -4 | 0 | 2
8 | CCNC(=O)[C@H]1O[C@@H](n2cnc3c(NCc4cccc5ccccc45)ncnc32)[C@H](O)[C@@H]1O [Example 6, N-6-Naphthylmethyladenosine-5'-ethylcarboxamide] | – | 21 | 30 | 82 | 87 | 88 | 90 | –
